Data published in PubChem BioAssay (NCI).
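Compound exposure: 48 hours, 5 concentrations, 96-well plates. GI50: concentration for 50% inhibition of growth. Definition used: TGI = concentration required for complete inhibition of growth.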

Experiments:
Assay in all cases: NCI anticancer screen, dose series, 48 h
M14 melanoma = system: M14 melanoma
SK-MEL-28 melanoma = system: SK-MEL-28 melanoma
MDA-MB-435 = system: MDA-MB-435
SR leukemia = system: SR leukemia
SF-268 CNS = system: SF-268 CNS
KM12 colon = system: KM12 colon
SW-620 colon = system: SW-620 colon
TK-10 renal = system: TK-10 renal
IGROV1 ovarian = system: IGROV1 ovarian
HCT-116 colon = system: HCT-116 colon
HL-60(TB) leukemia = system: HL-60(TB) leukemia
MDA-MB-231 breast = system: MDA-MB-231 breast
UACC-62 melanoma = system: UACC-62 melanoma
SNB-19 CNS = system: SNB-19 CNS
CAKI-1 renal = system: CAKI-1 renal
NCI-H522 lung = system: NCI-H522 lung
BT-549 breast = system: BT-549 breast
UACC-257 melanoma = system: UACC-257 melanoma
SK-MEL-5 melanoma = system: SK-MEL-5 melanoma
NCI-H23 lung = system: NCI-H23 lung
HOP-92 NSCLC = system: HOP-92 NSCLC
UO-31 renal = system: UO-31 renal
MCF7 breast = system: MCF7 breast
NCI-H226 lung = system: NCI-H226 lung
SK-OV-3 ovarian = system: SK-OV-3 ovarian
K-562 leukemia = system: K-562 leukemia
U251 CNS = system: U251 CNS

**Q.** Which results are given for `CC(=O)Oc1cc(C(C)C)c(OCCN(C)C)cc1C`?
**A.** GI50 (M14 melanoma): > 100 µM; TGI (M14 melanoma): > 100 µM; GI50 (SK-MEL-28 melanoma): > 100 µM; TGI (SK-MEL-28 melanoma): > 100 µM; GI50 (MDA-MB-435): > 100 µM; TGI (MDA-MB-435): > 100 µM; GI50 (SR leukemia): > 100 µM; TGI (SR leukemia): > 100 µM; GI50 (SF-268 CNS): > 100 µM; TGI (SF-268 CNS): > 100 µM; GI50 (KM12 colon): > 100 µM; TGI (KM12 colon): > 100 µM; GI50 (SW-620 colon): > 100 µM; TGI (SW-620 colon): > 100 µM; GI50 (TK-10 renal): > 100 µM; TGI (TK-10 renal): > 100 µM; GI50 (IGROV1 ovarian): > 100 µM; TGI (IGROV1 ovarian): > 100 µM; GI50 (HCT-116 colon): > 100 µM; TGI (HCT-116 colon): > 100 µM; GI50 (HL-60(TB) leukemia): > 100 µM; TGI (HL-60(TB) leukemia): > 100 µM; GI50 (MDA-MB-231 breast): > 100 µM; TGI (MDA-MB-231 breast): > 100 µM; GI50 (UACC-62 melanoma): > 100 µM; TGI (UACC-62 melanoma): > 100 µM; GI50 (SNB-19 CNS): > 100 µM; TGI (SNB-19 CNS): > 100 µM; GI50 (CAKI-1 renal): > 100 µM; TGI (CAKI-1 renal): > 100 µM; GI50 (NCI-H522 lung): > 100 µM; TGI (NCI-H522 lung): > 100 µM; GI50 (BT-549 breast): > 100 µM; TGI (BT-549 breast): > 100 µM; GI50 (UACC-257 melanoma): > 100 µM; TGI (UACC-257 melanoma): > 100 µM; GI50 (SK-MEL-5 melanoma): > 100 µM; TGI (SK-MEL-5 melanoma): > 100 µM; GI50 (NCI-H23 lung): > 100 µM; TGI (NCI-H23 lung): > 100 µM; GI50 (HOP-92 NSCLC): > 100 µM; TGI (HOP-92 NSCLC): > 100 µM; GI50 (UO-31 renal): > 100 µM; TGI (UO-31 renal): > 100 µM; GI50 (MCF7 breast): > 100 µM; TGI (MCF7 breast): > 100 µM; GI50 (NCI-H226 lung): > 100 µM; TGI (NCI-H226 lung): > 100 µM; GI50 (SK-OV-3 ovarian): > 100 µM; TGI (SK-OV-3 ovarian): > 100 µM; GI50 (K-562 leukemia): > 100 µM; TGI (K-562 leukemia): > 100 µM; GI50 (U251 CNS): > 100 µM
